Results as given in PubChem BioAssay (NCI).
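Results reflect a 48-hour exposure of cells in 96-well plates to compound at five concentrations. GI50: concentration for 50% inhibition of growth. At the TGI there is no net growth.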

Experiments:
Assay in all cases: growth of human tumour cells (NCI), 48 h
786-0 renal = system: 786-0 renal
A498 renal = system: A498 renal
A549 NSCLC = system: A549 NSCLC
ACHN renal = system: ACHN renal
BT-549 breast = system: BT-549 breast
CCRF-CEM leukemia = system: CCRF-CEM leukemia
COLO 205 colon = system: COLO 205 colon
EKVX NSCLC = system: EKVX NSCLC
HCC-2998 colon = system: HCC-2998 colon
HCT-116 colon = system: HCT-116 colon
HCT-15 colon = system: HCT-15 colon
HL-60(TB) leukemia = system: HL-60(TB) leukemia
HOP-62 NSCLC = system: HOP-62 NSCLC
HOP-92 NSCLC = system: HOP-92 NSCLC
HS 578T breast = system: HS 578T breast
HT29 colon = system: HT29 colon
IGROV1 ovarian = system: IGROV1 ovarian
K-562 leukemia = system: K-562 leukemia
KM12 colon = system: KM12 colon
LOX IMVI melanoma = system: LOX IMVI melanoma
M14 melanoma = system: M14 melanoma
MALME-3M melanoma = system: MALME-3M melanoma
MCF7 breast = system: MCF7 breast
MDA-MB-231 breast = system: MDA-MB-231 breast
MDA-MB-435 = system: MDA-MB-435
MOLT-4 leukemia = system: MOLT-4 leukemia
NCI-H226 lung = system: NCI-H226 lung
NCI-H23 lung = system: NCI-H23 lung
NCI-H460 lung = system: NCI-H460 lung
NCI-H522 lung = system: NCI-H522 lung
NCI/ADR-RES ovarian = system: NCI/ADR-RES ovarian
OVCAR-3 ovarian = system: OVCAR-3 ovarian
OVCAR-4 ovarian = system: OVCAR-4 ovarian
OVCAR-5 ovarian = system: OVCAR-5 ovarian
OVCAR-8 ovarian = system: OVCAR-8 ovarian
PC-3 prostate = system: PC-3 prostate
RPMI-8226 leukemia = system: RPMI-8226 leukemia
RXF 393 renal = system: RXF 393 renal
SF-268 CNS = system: SF-268 CNS
SF-295 CNS = system: SF-295 CNS
SF-539 CNS = system: SF-539 CNS
SK-MEL-2 melanoma = system: SK-MEL-2 melanoma
SK-MEL-28 melanoma = system: SK-MEL-28 melanoma
SK-MEL-5 melanoma = system: SK-MEL-5 melanoma
SK-OV-3 ovarian = system: SK-OV-3 ovarian
SN12C renal = system: SN12C renal
SNB-19 CNS = system: SNB-19 CNS
SNB-75 CNS = system: SNB-75 CNS
SR leukemia = system: SR leukemia
SW-620 colon = system: SW-620 colon
T-47D breast = system: T-47D breast
TK-10 renal = system: TK-10 renal
U251 CNS = system: U251 CNS
UACC-257 melanoma = system: UACC-257 melanoma
UACC-62 melanoma = system: UACC-62 melanoma
UO-31 renal = system: UO-31 renal

Clc1ccc2c(NCCCNCc3ccc4c(c3)OCO4)ccnc2c1 gave a GI50 (786-0 renal) of 2.88 µM, a TGI (786-0 renal) of 12 µM and a GI50 (A498 renal) of 14.4 µM. It also gave a TGI (A498 renal) of 27.6 µM, a GI50 (A549 NSCLC) of 9.47 µM and a TGI (A549 NSCLC) of 22.8 µM. For the same molecule, the GI50 (ACHN renal) was 3.45 µM, the TGI (ACHN renal) was 12 µM and the GI50 (BT-549 breast) was 4.47 µM. For the same molecule, the TGI (BT-549 breast) was 17.7 µM, the GI50 (CCRF-CEM leukemia) was 4.62 µM and the TGI (CCRF-CEM leukemia) was 19.3 µM. The GI50 (COLO 205 colon) was 1.73 µM, the TGI (COLO 205 colon) was 3.48 µM and the GI50 (EKVX NSCLC) was 9.4 µM. The TGI (EKVX NSCLC) was 24 µM, the GI50 (HCC-2998 colon) was 2.03 µM and the TGI (HCC-2998 colon) was 5.25 µM. It also gave a GI50 (HCT-116 colon) of 2.03 µM, a TGI (HCT-116 colon) of 8.82 µM and a GI50 (HCT-15 colon) of 2.42 µM. The TGI (HCT-15 colon) was 7.85 µM, the GI50 (HL-60(TB) leukemia) was 2.22 µM and the TGI (HL-60(TB) leukemia) was 4.79 µM. It also gave a GI50 (HOP-62 NSCLC) of 11.5 µM, a TGI (HOP-62 NSCLC) of 24.2 µM and a GI50 (HOP-92 NSCLC) of 0.739 µM. It also gave a TGI (HOP-92 NSCLC) of 4.74 µM, a GI50 (HS 578T breast) of 2.99 µM and a TGI (HS 578T breast) of 11.1 µM. The GI50 (HT29 colon) was 2.23 µM, the TGI (HT29 colon) was 6.85 µM and the GI50 (IGROV1 ovarian) was 5.52 µM. For the same molecule, the TGI (IGROV1 ovarian) was 20.9 µM, the GI50 (K-562 leukemia) was 2.19 µM and the TGI (K-562 leukemia) was 7.63 µM. For the same molecule, the GI50 (KM12 colon) was 3.86 µM, the TGI (KM12 colon) was 15.1 µM and the GI50 (LOX IMVI melanoma) was 1.91 µM. For the same molecule, the TGI (LOX IMVI melanoma) was 4.41 µM, the GI50 (M14 melanoma) was 1.74 µM and the TGI (M14 melanoma) was 3.42 µM. For the same molecule, the GI50 (MALME-3M melanoma) was 1.86 µM, the TGI (MALME-3M melanoma) was 3.48 µM and the GI50 (MCF7 breast) was 2.89 µM. It also gave a TGI (MCF7 breast) of 13 µM, a GI50 (MDA-MB-231 breast) of 1.72 µM and a TGI (MDA-MB-231 breast) of 5.78 µM. It also gave a GI50 (MDA-MB-435) of 1.68 µM, a TGI (MDA-MB-435) of 3.29 µM and a GI50 (MOLT-4 leukemia) of 2.68 µM. The TGI (MOLT-4 leukemia) was 10.2 µM, the GI50 (NCI-H226 lung) was 17.8 µM and the TGI (NCI-H226 lung) was 40.9 µM. The GI50 (NCI-H23 lung) was 8.59 µM, the TGI (NCI-H23 lung) was 23.8 µM and the GI50 (NCI-H460 lung) was 3.61 µM. For the same molecule, the TGI (NCI-H460 lung) was 12.1 µM, the GI50 (NCI-H522 lung) was 2.44 µM and the TGI (NCI-H522 lung) was 8.01 µM. For the same molecule, the GI50 (NCI/ADR-RES ovarian) was 4 µM, the TGI (NCI/ADR-RES ovarian) was 18.4 µM and the GI50 (OVCAR-3 ovarian) was 5.14 µM. It also gave a TGI (OVCAR-3 ovarian) of 18.7 µM, a GI50 (OVCAR-4 ovarian) of 10.8 µM and a TGI (OVCAR-4 ovarian) of 24.8 µM. The GI50 (OVCAR-5 ovarian) was 5.41 µM, the TGI (OVCAR-5 ovarian) was 18.8 µM and the GI50 (OVCAR-8 ovarian) was 3.64 µM. It also gave a TGI (OVCAR-8 ovarian) of 13.1 µM, a GI50 (PC-3 prostate) of 4.08 µM and a TGI (PC-3 prostate) of 17.2 µM. For the same molecule, the GI50 (RPMI-8226 leukemia) was 2.31 µM, the TGI (RPMI-8226 leukemia) was 6.16 µM and the GI50 (RXF 393 renal) was 1.87 µM. For the same molecule, the TGI (RXF 393 renal) was 5.07 µM, the GI50 (SF-268 CNS) was 3.12 µM and the TGI (SF-268 CNS) was 12.7 µM. The GI50 (SF-295 CNS) was 2.34 µM, the TGI (SF-295 CNS) was 7.11 µM and the GI50 (SF-539 CNS) was 1.85 µM. It also gave a TGI (SF-539 CNS) of 3.41 µM, a GI50 (SK-MEL-2 melanoma) of 2.03 µM and a TGI (SK-MEL-2 melanoma) of 4.56 µM. The GI50 (SK-MEL-28 melanoma) was 1.86 µM, the TGI (SK-MEL-28 melanoma) was 3.57 µM and the GI50 (SK-MEL-5 melanoma) was 1.74 µM. It also gave a TGI (SK-MEL-5 melanoma) of 3.13 µM, a GI50 (SK-OV-3 ovarian) of 14.7 µM and a TGI (SK-OV-3 ovarian) of 29.3 µM. For the same molecule, the GI50 (SN12C renal) was 8.26 µM, the TGI (SN12C renal) was 21.6 µM and the GI50 (SNB-19 CNS) was 4.79 µM. It also gave a TGI (SNB-19 CNS) of 16.9 µM, a GI50 (SNB-75 CNS) of 1.52 µM and a TGI (SNB-75 CNS) of 3.37 µM. It also gave a GI50 (SR leukemia) of 1.99 µM, a TGI (SR leukemia) of 4.67 µM and a GI50 (SW-620 colon) of 2.96 µM. It also gave a TGI (SW-620 colon) of 11.1 µM, a GI50 (T-47D breast) of 2.11 µM and a TGI (T-47D breast) of 5.26 µM. For the same molecule, the GI50 (TK-10 renal) was 2.19 µM, the TGI (TK-10 renal) was 5.54 µM and the GI50 (U251 CNS) was 2.68 µM. It also gave a TGI (U251 CNS) of 7.11 µM, a GI50 (UACC-257 melanoma) of 1.91 µM and a TGI (UACC-257 melanoma) of 3.44 µM. The GI50 (UACC-62 melanoma) was 2.02 µM, the TGI (UACC-62 melanoma) was 3.89 µM and the GI50 (UO-31 renal) was 1.41 µM. The TGI (UO-31 renal) was 3.1 µM.
